Results on 6 molecules are retold here after publication PMC7246635, “Structure–Activity Relationship of RGD-Containing Cyclic Octapeptide and αvβ3 Integrin Allows for Rapid Identification of a New Peptide Antagonist” (International Journal of Molecular Sciences, 2020).

Test [1] addresses T1, αvβ3 integrin (Homo sapiens, UniProt P05106+P06756).
T1 construct: expressed in transfected cells; host or cells: K562 human leukemia cells (ATCC) transfected with αvβ3 integrin
Put plainly: Competitive binding assay by flow cytometry: competition with 1 μM biotinylated LXW7 binding to αvβ3-K562 cells. Here is the method: To further verify our in silico screening results, we examined the binding of new LXW-analogous peptides to αvβ3 integrin in αvβ3-K562 cells. LXZ2 with DNTL as the X7 residue (Figure 6 left) was arbitrarily chosen and tested through flow cytometry for competing with 1 μM biotinylated LXW7 binding to αvβ3 integrin. […] The IC50 of the peptide inhibiting biotinylated LXW7 binding with K562/αvβ3+ cells was determined (Figure 6 right).
Figure 6 (A) Chemical structure of LXZ2; (B) Competitive binding assay. […] Positive control (cyan), cells were treated with 1μM biotinylated LXW7 and streptavidin-PE successively, and measured with flow cytometry. Negative control (red) represents cells without treatment of biotinylated LXW7. (C) IC50 measurement of LXW7 and LXZ2. The IC50s were determined with competitive binding assay by using a series of concentrations of LXW7 or LXZ2 competing with 1 μM biotinylated LXW7 binding to αvβ3-K562 cells. TEXT PRINTED IN THE PICTURE: (C) LXW7: IC50(μM): 1.53 | (C) LXZ2: IC50(μM): 0.31
The human leukemia cancer cells (K562, ATCC, Manassas, VA, USA) transfected with αvβ3-integrin were grown in the RPMI1640 medium and used for the assay as previously described. […] The samples were washed with 1 mL PBS containing 1% FBS for three times, then incubated with a 1:500 dilution of streptavidin-PE (1 mg/mL) for 30 min on ice followed by a single wash with 1 mL of PBS containing 1% FBS. Finally, the samples were analyzed via flow cytometry (Coulter XL-MCL). To measure the half-maximal inhibitory concentration (IC50) of the peptides, various diluted peptide solutions were mixed with 1.0 μM biotinylated LXW7, then incubated with cells, and followed by streptavidin-PE incubation. The samples were run through flow cytometer and Mean Fluorescence Intensity was decided for each individual sample. The IC50s were calculated from each sample based on the readings.
In general terms: Flow cytometry measures light scatter and fluorescence of single cells or particles in a stream.

The target in test [2] is T1, αvβ3 integrin. The conditions noted are these: cited from earlier work. From the text:
Targeting tumor cells or tumor vasculature by RGD-based strategies is a promising approach for delivering anticancer drugs or contrast agents for cancer therapy and diagnosis. RGD-based strategies include RGD peptide or peptidomimetic drugs, RGD-conjugates, and the grafting of the RGD peptide or peptidomimetic, as targeting ligand, at the surfa ... || (+ 4 further places)

In test [3] the test system is αvβ3 integrin. The conditions noted are these: cited from earlier work. From the text:
In our current study, 20 new LXW analogs were predicted via in silico screening with a high binding affinity to αvβ3 integrin. […] These X7 amino acids can be classified into two groups according to their side-chain structures—cyclic (total 13) and non-cyclic (aliphatic, total 7). […] Among the cyclic amino acids, the aromatic (mainly polycyclic excepted DPH ...

The next test relates to α5β1. The conditions noted are these: integrin expressed on K562 cells; cited from earlier work. From the text:
(§1) Structure–activity relationship between LXW peptides and αvβ3 LXW analogs are a new category of RGD-containing cyclopeptides that binds specifically to αvβ3 integrin [7, 8]. The LXW analogs were designed and screened using OBOC combinatorial technology. Unlike other RGD cyclopeptide antagonists (i.e., cilengitide), LXW analogs are extended circular structures with a disulfide bond formed between two cysteines in the peptide sequence (cGRGDdXc). D-configuration of two cysteines in these analogs is essential for the antagonistic activity, which can force the cyclopeptide to adopt ...

The next test deals with αIIbβ3. The following applies: integrin expressed on K562 cells; cited from earlier work.
Source text: as §1

A further test concerns αvβ3. The following applies: integrin expressed on K562 cells; cited from earlier work.
Source text: as §1

A further test deals with αvβ5. The conditions noted are these: integrin expressed on K562 cells; cited from earlier work.
Source text: as §1

[4] abbreviates: series of peptide concentrations competing with 1 μM biotinylated LXW7 binding to αvβ3-K562 cells, flow cytometry, streptavidin-PE, PBS, 10% FBS, 1 mM MnCl2, 30 min on ice, Figure 6C, read-out: IC50.
Setting [5] is: concentration of peptide required for inhibition of 0.5 µmoL/L biotinylated LXW7 binding to K562/αvβ3+ cells by half, Table 1.
[6] abbreviates: known IC50s from previous in vitro screening, binding to αvβ3 integrin, Table 3.

Where two headings read alike, the source gives them in different places. Bridge positions count the residues as written; N and C are the ends. Square brackets hold non-standard residues; d marks the D form. Ends that are not written are not given here. Peptide text beside a SMILES is read from it.

A word on the IC50: it is the concentration that gives 50% inhibition. Consider `N=C(N)NCCC[C@@H]1NC(=O)CNC(=O)[C@H](N)CSSC[C@H](C(N)=O)NC(=O)[C@@H](Cc2c3ccccc3cc3ccccc23)NC(=O)[C@@H](CC(=O)O)NC(=O)[C@H](CC(=O)O)NC(=O)CNC1=O` [LXZ2], for which the “binding affinity compared with LXW7 in competitive binding” value at αvβ3 integrin [1] (5 μM peptide competes with 1 μM biotinylated LXW7 binding to αvβ3-K562 cells, flow cytometry, Figure 6B) is “stronger binding affinity than the first lead—LXW7”. In addition, the IC50 on αvβ3 integrin [1] (converted, referred to LXW7 in Table 3, read-out: converted IC50) was 90 nM; on αvβ3 integrin [1] (setting [4]), 310 nM.
Turning to “CGRGDdvC-NH2 (disulfide) (CGRGD[dD][dV]C-NH2; disulfide 1-8; N-terminus assumed; SMILES CC(C)[C@H]1NC(=O)[C@@H](CC(=O)O)NC(=O)[C@H](CC(=O)O)NC(=O)CNC(=O)[C@H](CCCNC(=N)N)NC(=O)CNC(=O)[C@@H](N)CSSC[C@@H](C(N)=O)NC1=O) [LXW11, LXW7 isomer CGRGDdvC-NH2 with two L-cysteines]”, the IC50 in the test with αvβ3 integrin [2] (setting [5]) and in the test with αvβ3 integrin [2] (setting [6]) was greater than 20000 nM in each case.
For `CC(C)[C@H]1NC(=O)[C@@H](CC(=O)O)NC(=O)[C@H](CC(=O)O)NC(=O)CNC(=O)[C@H](CCCNC(=N)N)NC(=O)CNC(=O)[C@H](N)CSSC[C@H](C(N)=O)NC1=O` [LXW7] (H-[dC]GRGD[dD][dV][dC]-NH2; disulfide 1-8), the IC50 on αvβ3 integrin [1] (setting [4]) is 1530 nM.
“LXW26: LXW analog with D-Ile as X amino acid (CGRGDDIC; cyclic via D-Cys1-D-Cys8 disulfide; D-Cys1, D-Asp6, D-Ile7, D-Cys8; C-terminal amide (template cGRGDdXc-NH2, X = D-Ile))”: the half-inhibitory concentration (IC50) in the test with αvβ3 integrin [2] (setting [6]) is 1840 nM.
As for cilengitide, in the test with αvβ3 integrin [3], the IC50 was 250 nM.
Take “cGRGDd-DNal1-c-NH2 (disulfide) [LXW64, cyclic octapeptide cGRGDd-DNal1-c-NH2 with 3-(1-naphthyl)-D-alanine at X7]”: the “higher binding affinity than LXW7” value on αvβ3 integrin [2] (binding affinity to αvβ3 relative to LXW7) was 6 fold. The IC50 at αvβ3 integrin [2] (setting [5]) and at αvβ3 integrin [2] (setting [6]) was 70 nM in each case. The “binding to α5β1” value in the test on α5β1 is “weak or no binding”. Moreover, in the test with αIIbβ3, the “binding to αIIbβ3” value was “weak or no binding”. Also, the “binding with αvβ3” value in the test with αvβ3 is reported as “significant positive binding”. Also, the “binding to αvβ5” value in the test with αvβ5 is listed as “weak or no binding”.
